This passage reports IC50 results from BindingDB's records for doi:10.1021/jm020056z (University of Newcastle, 2002).

Assay [1] addresses T1, Cyclin-A2 [171-432]/Cyclin-dependent kinase 2 (Homo sapiens, UniProt P24941).
T1 construct: 171-432
In words: Kinase Inhibition Assay.

The target in assay [2] is Cyclin-dependent kinase 1/G2/mitotic-specific cyclin-B (Marthasterias glacialis, UniProt P15206+Q9DGD3). In words: Kinase Inhibition Assay.
Sequence of Cyclin-dependent kinase 1/G2/mitotic-specific cyclin-B (Q9DGD3 whole entry): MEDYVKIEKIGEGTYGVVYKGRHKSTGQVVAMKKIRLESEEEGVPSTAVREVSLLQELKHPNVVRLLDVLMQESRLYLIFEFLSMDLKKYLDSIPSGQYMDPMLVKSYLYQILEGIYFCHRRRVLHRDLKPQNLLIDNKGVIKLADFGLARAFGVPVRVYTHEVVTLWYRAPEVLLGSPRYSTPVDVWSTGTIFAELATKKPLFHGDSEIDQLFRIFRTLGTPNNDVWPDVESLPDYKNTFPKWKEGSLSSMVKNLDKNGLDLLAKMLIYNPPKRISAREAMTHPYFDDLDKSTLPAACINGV
Sequence of Cyclin-dependent kinase 1/G2/mitotic-specific cyclin-B (P15206 whole entry): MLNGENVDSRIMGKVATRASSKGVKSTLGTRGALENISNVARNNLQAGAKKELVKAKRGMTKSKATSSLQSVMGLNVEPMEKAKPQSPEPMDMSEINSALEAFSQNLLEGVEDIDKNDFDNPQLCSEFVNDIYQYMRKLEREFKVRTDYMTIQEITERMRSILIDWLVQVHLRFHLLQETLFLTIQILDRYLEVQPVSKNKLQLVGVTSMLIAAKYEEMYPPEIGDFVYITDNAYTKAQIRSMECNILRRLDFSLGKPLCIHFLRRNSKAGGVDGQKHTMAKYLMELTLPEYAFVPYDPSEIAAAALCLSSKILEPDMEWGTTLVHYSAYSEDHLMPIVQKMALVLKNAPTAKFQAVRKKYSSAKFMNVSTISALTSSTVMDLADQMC

For orientation: IC50 means the concentration at which inhibition is half-maximal. A lower IC50 goes with greater potency in that assay. In turn, `Nc1nc(OCC2CC=CCC2)c2[nH]cnc2n1` (stereo not drawn) returned an IC50 in assay [1] of 16 µM.

For `CCOC(C)(COc1nc(N)nc2[nH]cnc12)OCC`, the IC50 was found to be 33 µM in assay [1] and 36 µM in assay [2].
